For test [1], the system named is Haemophilus influenzae Holt. Kind of test: MIC, standard agar-dilution assay (Table V). The test is classed as cell-based. As to conditions: Haemophilus influenzae. On the procedure: (§1) The MIC's in Tables V and VI were determined by standard agar-dilution assays. The MIC's in Table VII were obtained using a conventional broth-dilution microtiter test.
In test [2] the test system is Streptococcus pyogenes C203. Briefly: MIC, standard agar-dilution assay (Table V). It is filed as cell-based. The following applies: Streptococcus pyogenes. The protocol: as §1
In test [3] the test system is Haemophilus influenzae R252. Kind of test: MIC, standard agar-dilution assay (Table V). It is filed as cell-based. As to conditions: Haemophilus influenzae. The protocol: as §1
The next test has as its system Escherichia coli TEM. Briefly: MIC, standard agar-dilution assay (Table V). The test is classed as cell-based. As to conditions: Escherichia coli. On the procedure:
as §1

The test system of the next test is Pasteurella multocida. Kind of test: Protection of one-day-old chicks against Pasteurella multocida infection (Table IX). The test is classed as in vivo. The following applies: subcutaneous 30 mg/kg × 2, 1 and 4 hours post-challenge. A digest of the protocol:
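One-day-old chicks were challenged subcutaneously with 0.1 ml of a twenty-hour tryptose broth culture of avian P. multocida. Compound was given subcutaneously at 30 mg/kg, 1 and 4 hours post-challenge, and protection against death was followed, with non-medicated infected chicks as controls.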

The test system of a further test is Escherichia coli EC14. Briefly: MIC, standard agar-dilution assay (Table V). It is filed as cell-based. As to conditions: Escherichia coli. The method, boiled down: (§2)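 Growth inhibition in liquid medium, in a routine microtiter broth-dilution series, gave the MIC against staphylococci and pasteurellae; the gram-negative enteric strain was tested by conventional agar dilution instead.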

Test [4] deals with Staphylococcus epidermidis EPI2. Briefly: MIC, standard agar-dilution assay (Table V). The test is classed as cell-based. As to conditions: Staphylococcus epidermidis. On the procedure: (§3) Especially noteworthy is the improved activity against gram-negative bacteria for several derivatives when compared to the activity of OMT. […] The MIC's in Tables V and VI were determined by standard agar-dilution assays. The MIC's in Table VII were obtained using a conventional broth-dilution microtiter test.

Test [5] deals with Staphylococcus aureus S13E. Briefly: MIC, standard agar-dilution assay (Table V). The test is classed as cell-based. The following applies: Staphylococcus aureus, S13E. On the procedure:
as §3

In the next test the test system is Escherichia coli N10. Briefly: MIC, standard agar-dilution assay (Table V). The test is classed as cell-based. The following applies: Escherichia coli. The method, boiled down:
as §2

The test system of test [6] is Klebsiella pneumoniae X26. Briefly: MIC, standard agar-dilution assay (Table V). The test is classed as cell-based. The following applies: Klebsiella pneumoniae. The protocol: as §3
In a further test the test system is Shigella sonnei N9. Kind of test: MIC, standard agar-dilution assay (Table V). It is filed as cell-based. The method, boiled down:
as §2

Test [7] concerns Staphylococcus epidermidis EPI1. Kind of test: MIC, standard agar-dilution assay (Table V). The test is classed as cell-based. As to conditions: Staphylococcus epidermidis. The protocol: as §3
The subject of test [8] is Klebsiella pneumoniae KAE. Briefly: MIC, standard agar-dilution assay (Table V). As to conditions: Klebsiella pneumoniae. It is filed as cell-based. The method, boiled down: as §2
The mark [9] stands for this setting: H. influenzae Holt, ampicillin-sensitive strain, agar dilution, read-out: MIC.
[10] abbreviates: S. pyogenes C203, agar dilution, read-out: MIC.
Where [11] appears, read: H. influenzae R252, ampicillin-resistant strain, agar dilution, read-out: MIC.
Where [12] appears, read: S. epidermidis EPI2, agar dilution, read-out: MIC.
Setting [13] is: S. epidermidis EPI1, agar dilution, read-out: MIC.
The mark [14] stands for this setting: E. coli EC14, agar dilution, read-out: MIC.
The mark [15] stands for this setting: E. coli N10, agar dilution, read-out: MIC.
Setting [16] is: K. pneumoniae X26, agar dilution, read-out: MIC.
Where [17] appears, read: K. pneumoniae KAE, agar dilution, read-out: MIC.
The mark [18] stands for this setting: E. coli TEM, agar dilution, read-out: MIC.

Values after ≈ are worked out from the molar mass of the structure shown. Like-named read-outs stand apart in the source and are kept apart here.

As for `CCC1OC(=O)CC(O)C(C)C(OC2OC(C)C(O)C(N(C)C)C2O)C(CC=O)CC(C)C(=O)C=CC(C)=CC1CSc1ccccc1` (stereo not shown) [Compound 2, 23-Deoxy-23-(phenyl)thio-OMT], the MIC in [1] (setting [9]) worked out at 1 µg/mL (≈ 1.45 µM); in test [2] (setting [10]), 0.015 µg/mL (≈ 0.0217 µM); in test [3] (setting [11]), 1 µg/mL (≈ 1.45 µM); against Escherichia coli TEM, 8 µg/mL (≈ 11.6 µM); in the test with Escherichia coli EC14 (EC14), 32 µg/mL (≈ 46.4 µM); in [4] (setting [12]), 0.125 µg/mL (≈ 0.181 µM). In addition, the MIC in test [5] is 0.06 µg/mL (≈ 0.087 µM); against Escherichia coli N10 (N10), 32 µg/mL (≈ 46.4 µM); in test [6] (X26) it was 2 µg/mL (≈ 2.9 µM); against Shigella sonnei N9, 16 µg/mL (≈ 23.2 µM); in [7] (setting [13]), 0.125 µg/mL (≈ 0.181 µM); in test [8], 64 µg/mL (≈ 92.8 µM). Moreover, in the test on Pasteurella multocida, the “Number of deaths/number treated” value was 10/10.

As to `CCC1OC(=O)CC(O)C(C)C(OC2OC(C)C(O)C(N(C)C)C2O)C(CC=O)CC(C)C(=O)C=CC(C)=CC1CF` (stereo not shown) [Compound 15, 23-Deoxy-23-fluoro-OMT], the MIC in [1] (setting [9]) stood at 1 µg/mL (≈ 1.67 µM); in [2] (setting [10]), 0.125 µg/mL (≈ 0.208 µM); in [3] (R252), 0.5 µg/mL (≈ 0.834 µM); with Escherichia coli TEM, 8 µg/mL (≈ 13.3 µM); in the test on Escherichia coli EC14 (setting [14]), 32 µg/mL (≈ 53.4 µM); in test [4] (setting [12]), 0.5 µg/mL (≈ 0.834 µM). For the same molecule, the MIC turned out to be 0.5 µg/mL (≈ 0.834 µM) in [5]; 32 µg/mL (≈ 53.4 µM) in the test with Escherichia coli N10 (setting [15]); 2 µg/mL (≈ 3.33 µM) in test [6] (setting [16]); 32 µg/mL (≈ 53.4 µM) in the test with Shigella sonnei N9; 0.25 µg/mL (≈ 0.417 µM) in test [7] (setting [13]); 64 µg/mL (≈ 107 µM) in test [8].

For `CCC1OC(=O)CC(O)C(C)C(OC2OC(C)C(O)C(N(C)C)C2O)C(CC=O)CC(C)C(=O)C=CC(C)=CC1CN=[N+]=[N-]` (stereo not shown) [Compound 8, 23-Deoxy-23-azido-OMT], the MIC in [1] is 1 µg/mL (≈ 1.61 µM); in test [2] (C203), 0.125 µg/mL (≈ 0.201 µM); in [3] (R252), 1 µg/mL (≈ 1.61 µM); with Escherichia coli TEM, 16 µg/mL (≈ 25.7 µM); with Escherichia coli EC14 (setting [14]) it was 32 µg/mL (≈ 51.4 µM); in [4] (EPI2) it was 0.25 µg/mL (≈ 0.401 µM). Further, the MIC was 0.25 µg/mL (≈ 0.401 µM) in test [5]; 32 µg/mL (≈ 51.4 µM) in the test on Escherichia coli N10 (setting [15]); 4 µg/mL (≈ 6.42 µM) in test [6] (setting [16]); 32 µg/mL (≈ 51.4 µM) in the test with Shigella sonnei N9; 0.125 µg/mL (≈ 0.201 µM) in [7] (setting [13]); above 128 µg/mL in test [8] (setting [17]). For the same molecule, in the test with Pasteurella multocida, the “Number of deaths/number treated” value is reported as 10/10.

Take `CCC1OC(=O)CC(O)C(C)C(OC2OC(C)C(O)C(N(C)C)C2O)C(CC=O)CC(C)C(=O)C=CC(C)=CC1CSc1nnc(C)s1` (stereo not shown) [Compound 3, 23-Deoxy-23-(5-methyl-1,3,4-thiadiazol-2-yl)thio-OMT]: the MIC was 2 µg/mL (≈ 2.81 µM) in test [1]; 0.125 µg/mL (≈ 0.176 µM) in [2] (C203); 2 µg/mL (≈ 2.81 µM) in test [3] (setting [11]); 32 µg/mL (≈ 44.9 µM) in the test with Escherichia coli TEM (setting [18]); 64 µg/mL (≈ 89.9 µM) in the test with Escherichia coli EC14 (setting [14]); 0.25 µg/mL (≈ 0.351 µM) in [4] (setting [12]). For the same molecule, the MIC was 0.25 µg/mL (≈ 0.351 µM) in test [5]; 64 µg/mL (≈ 89.9 µM) in the test with Escherichia coli N10 (N10); 4 µg/mL (≈ 5.62 µM) in [6] (X26); 64 µg/mL (≈ 89.9 µM) in the test on Shigella sonnei N9; 0.125 µg/mL (≈ 0.176 µM) in test [7] (setting [13]); above 128 µg/mL in test [8] (setting [17]). The “Number of deaths/number treated” value in the test on Pasteurella multocida is 10/10.

As to `CCC1OC(=O)CC(O)C(C)C(OC2OC(C)C(O)C(N(C)C)C2O)C(CC=O)CC(C)C(=O)C=CC(C)=CC1CSc1nnnn1C` (stereo not shown) [Compound 5, 23-Deoxy-23-(1-methyltetrazol-5-yl)thio-OMT], the MIC in test [1] was determined as 4 µg/mL (≈ 5.75 µM); in test [2] (C203) it was 0.25 µg/mL (≈ 0.359 µM); in [3] (R252), 2 µg/mL (≈ 2.87 µM); with Escherichia coli TEM (setting [18]) it was 32 µg/mL (≈ 46 µM); against Escherichia coli EC14 (EC14), 64 µg/mL (≈ 92 µM); in test [4] (setting [12]), 0.5 µg/mL (≈ 0.719 µM). Also, the MIC was 0.5 µg/mL (≈ 0.719 µM) in [5]; above 128 µg/mL with Escherichia coli N10 (N10); 4 µg/mL (≈ 5.75 µM) in test [6] (X26); 64 µg/mL (≈ 92 µM) with Shigella sonnei N9; 0.25 µg/mL (≈ 0.359 µM) in [7] (setting [13]); above 128 µg/mL in [8]. Further, in the test with Pasteurella multocida, the “Number of deaths/number treated” value is given as 3/10.

For the molecule `CCC1OC(=O)CC(O)C(C)C(OC2OC(C)C(O)C(N(C)C)C2O)C(CC=O)CC(C)C(=O)C=CC(C)=CC1CSC(C)=O` (stereo not shown) [Compound 7, 23-Deoxy-23-(acetyl)thio-OMT], the MIC in [1] (setting [9]) was 1 µg/mL (≈ 1.52 µM); in test [2] (C203), 0.25 µg/mL (≈ 0.381 µM); in [3] (R252), 2 µg/mL (≈ 3.05 µM); with Escherichia coli EC14 (setting [14]), 64 µg/mL (≈ 97.6 µM); in test [4] (EPI2), 0.125 µg/mL (≈ 0.191 µM); in test [5], 0.125 µg/mL (≈ 0.191 µM). Moreover, the MIC with Escherichia coli N10 (N10) is 64 µg/mL (≈ 97.6 µM); in [6] (X26), 4 µg/mL (≈ 6.1 µM); in the test with Shigella sonnei N9 it was 64 µg/mL (≈ 97.6 µM); in [7] (EPI1), 0.125 µg/mL (≈ 0.191 µM); in test [8], above 128 µg/mL. The “Number of deaths/number treated” value in the test with Pasteurella multocida was 10/10.

The record behind these values is patent US4459290A, “C-23-Modified derivatives of OMT, pharmaceutical compositions and method of use” (priority 1982, dated 1984).
